± gives the standard deviation.
Columns and labels:
[1] = tested on: Toxoplasma gondii RH tachyzoites; test: % growth inhibition vs DMSO (48 h luciferase); higher = more inhibition; conditions: 10 µM
[2] = tested on: Plasmodium falciparum 3D7; test: EC50 growth inhibition (60 h, SYBR Green); conditions: stage: ring-stage start
[3] = tested on: Plasmodium falciparum KH004-003 (artemisinin resistant); test: R50 (50% reduction of ring formation, egress/invasion); higher = less potent
Protocol: (§1)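 P. falciparum asexual blood stages. EC50: sorbitol-synchronized 3D7 rings were treated with 2-fold dilutions from 10 µM for 60 h, with parasitemia read by SYBR Green I fluorescence; EC50 listed as 10 means not determined and is left out. Stage transition screen: ~40-42 hpi schizonts were treated at 1, 3 and 10 µM; new rings were counted by Hoechst flow cytometry and % inhibition is relative to DMSO controls (mean of 3 experiments). R50: concentration giving 50% reduction of new ring formation versus DMSO in 3D7, K1 and KH004-003, from flow cytometry after 12-20 h treatment of schizonts.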

[4] = tested on: Plasmodium falciparum 3D7; test: as above
Protocol: as §1

[5] = tested on: Plasmodium falciparum K1 (chloroquine resistant); test: as above
Protocol: as §1

[6] = tested on: Plasmodium falciparum 3D7; test: % inhibition of schizont-to-ring transition vs DMSO; higher = more inhibition
How it was run: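 Schizont-to-ring transition inhibition compares new ring formation with that in vehicle controls. Synchronised P. falciparum schizonts (about 40–42 hours post-invasion, 1% parasitemia, 2.5% hematocrit, AlbuMAX-supplemented RPMI) were exposed to 1, 3 or 10 µM compound, after which rings were counted by Hoechst 33342 flow cytometry across three experiments.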

[7] = tested on: Toxoplasma gondii RH tachyzoites; test: plaque count per well; higher = less inhibition; extreme values may be limits of the assay; conditions: 10 µM; 8-10 days
How it was run: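 Fifty T. gondii RH tachyzoites were added to each well of six-well plates holding confluent HFF monolayers preseeded with compound at 10 µM. Plates were left undisturbed for 8 to 10 days, then fixed with methanol and stained with crystal violet. Plaques were imaged and counted per well with ImageJ, with untreated and 1% DMSO-treated wells as controls. Plaque count per well reflects delayed-death inhibition of parasite growth.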

[8] = tested on: Toxoplasma gondii RH tachyzoites; test: median egress time after A23187 ionophore; higher = stronger egress inhibition; conditions: 10 µM; pretreatment time: 24 h
Protocol: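 T. gondii RH tachyzoites expressing firefly luciferase were grown in HFF monolayers for 48 h with compound. % growth inhibition at 10 µM and EC50 (2-fold dilutions from 10 µM) were read by luminescence relative to 1% DMSO; EC50 listed as 10 (not determined, <80% inhibition) is left out. Plaque assays: 50 tachyzoites per well with 10 µM compound for 8-10 days, giving plaque count and area by crystal violet/ImageJ. Egress: median time to egress after 1 µM A23187 ionophore following 24 h of 10 µM compound (DMSO ~1.8 min; >10 = no egress within 10 min).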

[9] = target: Toxoplasma gondii RH tachyzoites; test: EC50 growth inhibition (48 h luciferase)
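For % growth inhibition vs DMSO (48 h luciferase) in this document: tested in triplicate wells of 96-well plates on confluent HFF monolayers, with 1% DMSO wells as negative control in four replicates.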

Structure (SMILES) | % growth inhibition [1] | EC50 growth inhibition [2] | R50 [3] | R50 [4] | R50 [5] | % inhibition of schizont-to-ring transition ([6]; 1 µM) | % inhibition of schizont-to-ring transition ([6]; 3 µM) | % inhibition of schizont-to-ring transition ([6]; 10 µM) | plaque count per well [7] | median egress time [8] | EC50 growth inhibition [9]
COc1cccc(O)c1CN1CCC2(CCCN(Cc3ccc(F)cc3)C2)C1 (stereo not drawn) | 79.6 ± 3.5% | 409 nM | 1.23 µM | 1.91 µM | 0.805 µM | 42.2% | 68.4% | 72.4% | – | – | –
CC(C)(C)c1ccc(O)c(CNC2CCCCC2)c1 | 7.99 ± 2.4% | 93.3 nM | 0.215 µM | 0.305 µM | 0.119 µM | 70.4% | 76.8% | 76.9% | 0 | 2.8 min | –
COc1ccc2c(c1)C1(Nc3ccccc3-c3nc4ccccc4n31)C(=O)N2 (stereo not drawn) | 47.3 ± 3.5% | 138 nM | 0.922 µM | 0.892 µM | 0.768 µM | 62% | 64.1% | 68.6% | – | 2.33 min | –
CC(=O)NCCc1nc2ccccc2n1Cc1ccc(C(C)C)cc1 | < 0% | 900 nM | 3.03 µM | 3.03 µM | 3.69 µM | 37.3% | 61% | 78.1% | 33 | 5.47 min | –
CCOc1cc2c(cc1OCC)C(c1cc(OC)c(O)cc1Cl)NCC2 (stereo not drawn) | 37.4 ± 13% | 711 nM | 1.32 µM | 2.71 µM | 0.342 µM | 11.2% | 60% | 76.1% | – | 2.27 min | –
CNCCCNc1ccnc2cc(Cl)ccc12 | 21.4 ± 19% | 25.8 nM | 3.81 µM | 0.345 µM | 4.11 µM | 61.4% | 66.5% | 71.6% | – | 2.4 min | –
Cc1cc(NC(=O)C2c3ccccc3C(=O)N(CC(C)C)C2c2cccs2)no1 (stereo not drawn) | < 0% | 64 nM | 0.43 µM | 0.363 µM | 0.307 µM | 76.6% | 76.8% | 78.6% | 29 | 5.73 min | –
CCN(Cc1ccccc1)C1CCN(Cc2cc(Br)ccc2O)CC1 | < 0% | 310 nM | 0.532 µM | 0.998 µM | 0.491 µM | 59.3% | 74.2% | 76.9% | 24 | > 10 min | –
COc1ccc(C2c3ccc4ccccc4c3Oc3ncn(CCCn4ccnc4)c(=N)c32)cc1OC (stereo not drawn) | 65.4 ± 9% | 383 nM | 2.4 µM | 2.5 µM | 2.92 µM | 40% | 73.6% | 75.6% | – | 2.27 min | –
CC1(c2ccccc2)Nc2ccccc2-c2nc3ccccc3n21 (stereo not drawn) | 24.3 ± 8% | 194 nM | 0.275 µM | 0.768 µM | 0.955 µM | 56.1% | 77.5% | 79% | – | 4.13 min | –
Cc1cc(Nc2ccc(OCc3ccccc3)cc2)nc2cc(O)ccc12 | 100.3 ± 0.21% | 195 nM | 0.702 µM | 0.97 µM | 0.291 µM | 64.2% | 71.9% | 69.8% | – | – | 2850 nM
COc1cccc(NC(=O)[C@H](C(C)C)n2c(=O)[nH]c3ccccc3c2=O)c1 | 76.9 ± 9.3% | 51.4 nM | 0.183 µM | 0.28 µM | 0.212 µM | 79.8% | 80.5% | 79.4% | – | 2.67 min | –
CCOc1c(Cl)cc(CNC(C)C(O)c2ccccc2)cc1OC (stereo not drawn) | 18.8 ± 18% | 926 nM | 2.58 µM | 3.32 µM | 1.56 µM | 2.61% | 19.5% | 72.7% | 0 | 3.47 min | –
O=C(NC1CCN(Cc2ccccc2)CC1)c1cc(C(=O)NC2CCN(Cc3ccccc3)CC2)cc(C(=O)NC2CCN(Cc3ccccc3)CC2)c1 | 18.9 ± 16% | 1670 nM | 1.42 µM | 3.38 µM | 0.179 µM | 25.8% | 30.4% | 53.7% | 35 | 2.33 min | –
COc1cccc(C2(C)Nc3ccccc3-c3nc4ccccc4n32)c1 (stereo not drawn) | 12.6 ± 12% | 217 nM | 0.715 µM | 1.13 µM | 1.17 µM | 66% | 81.1% | 81.2% | 21 | > 10 min | –
COc1ccc(CCn2c(=N)c(C(=O)NCc3cccnc3)cc3c(=O)n4cccc(C)c4nc32)cc1 | 75.9 ± 1.6% | 353 nM | 0.771 µM | 2.26 µM | 2.1 µM | 40.3% | 65.1% | 66.9% | – | 2.13 min | –
Oc1ccc(-c2nc(-c3ccc4oc5ccc(-c6[nH]c(-c7ccc(O)cc7)nc6-c6ccccc6)cc5c4c3)c(-c3ccccc3)[nH]2)cc1 | < 0% | 1890 nM | – | – | – | 8.13% | 15.7% | 48.8% | 11 | 1.47 min | –
COc1cccc(-c2nn(C)c3sc(C(=O)NCCN4CCN(c5ccccc5F)CC4)cc23)c1 | 1.85 ± 3.2% | 4200 nM | – | – | – | 12.9% | 36.3% | 60.8% | 31 | 2.93 min | –
Cc1sc2ncnc(Sc3nc4ccccc4[nH]3)c2c1C | 95.05 ± 0.6% | 860 nM | 0.464 µM | 2.43 µM | 1.69 µM | 47.8% | 59.6% | 77.8% | – | – | 2950 nM

Structure (SMILES) | % growth inhibition [1] | EC50 growth inhibition [2] | R50 [3] | R50 [4] | R50 [5] | % inhibition of schizont-to-ring transition ([6]; 1 µM) | % inhibition of schizont-to-ring transition ([6]; 3 µM) | % inhibition of schizont-to-ring transition ([6]; 10 µM) | plaque count per well [7] | median egress time [8] | EC50 growth inhibition [9]
CCCCCCc1cc2cc(-c3csc(C=Cc4ccccc4)n3)c(=O)oc2cc1O | 8.97 ± 4.1% | 8400 nM | – | – | – | 9.04% | 16% | 39.7% | 16 | 1.94 min | –
OC(Cn1nnc2ccccc21)Cn1c2ccc(Br)cc2c2cc(Br)ccc21 (stereo not drawn) | 22.8 ± 3.4% | – | 0.102 µM | 2.87 µM | 1.23 µM | < 0% | 30.6% | 45.7% | – | – | –
O=C(NC1CCN(Cc2ccccc2)CC1)c1cc(-c2cccnc2)nc2ccc(Cl)cc12 | 19.7 ± 17% | 2560 nM | – | – | – | 13.5% | 17.4% | 37.7% | 34 | 2.67 min | –
Cc1cc(Nc2ccc(C)c(Cl)c2)n2nc(C(F)(F)F)nc2n1 | 23.8 ± 9.5% | 12.5 nM | 0.1 µM | 0.274 µM | 0.212 µM | 51.6% | 56.6% | 65.1% | – | 2.46 min | –
Oc1ccc(Br)cc1CN1CCN(Cc2cccc(F)c2)CC1 | 6.13 ± 7.3% | 787 nM | – | – | – | 19% | 40.9% | 60.6% | 21 | 2.27 min | –
CCOc1ccccc1CN1CCc2nc3cc(C(C)(C)C)nn3c(O)c2C1 | < 0% | 2290 nM | – | – | – | 34.2% | 42.8% | 49.8% | 28 | 1.47 min | –
COc1cc(OC)c(N(C)C(=O)c2cc3c(s2)-c2ccccc2S(=O)(=O)C3)cc1Cl | < 0% | 1190 nM | 0.352 µM | 0.868 µM | 0.933 µM | 55.9% | 60% | 66.3% | 33 | 8.4 min | –
CCOc1ccccc1CNC(=O)C1c2ccccc2C(=O)N(CC(C)C)C1c1cccs1 (stereo not drawn) | 70.7 ± 11% | 649 nM | 2.32 µM | 2.06 µM | 2.11 µM | 38.3% | 65.3% | 74.8% | – | – | –
CN1CCN(c2ccc(Nc3c4ccccc4nc4ccccc34)cc2)CC1 | 100 ± 0.36% | 59.9 nM | 0.883 µM | 1.39 µM | 1.94 µM | 68.6% | 75.5% | 77.1% | – | – | 2320 nM
CCOC(=O)c1c(NC(=O)c2ccccc2)sc2c(O)c(CN(CC)CC)ccc12 | 65.8 ± 12% | 8.57 nM | 0.138 µM | 0.186 µM | 0.103 µM | 57.2% | 69.3% | 71.9% | – | 2.13 min | –
Cc1cc(C)c2c(c1)OCN(Cc1ccccc1Cl)C2 | 4.95 ± 8.6% | 3620 nM | – | – | – | < 0% | 17.9% | 59.9% | 27 | 2 min | –
Cc1c(C)n(CC(O)CNC2CCCCC2C)c2ccccc12 (stereo not drawn) | < 0% | 2180 nM | – | – | – | 14.4% | 32.3% | 64.2% | 23 | 3.07 min | –
CCCC(c1nnnn1C1CCCCC1)N1CCN(C(=O)c2ccco2)CC1 (stereo not drawn) | 9.52 ± 8.7% | 1470 nM | – | – | – | 9.2% | 14.6% | 32.1% | 24 | 2.4 min | –
CCOC(=O)c1cn(CC)c2cc(N3CCCCC3)c(F)cc2c1=O | 67.3 ± 6.7% | 670 nM | 0.155 µM | 0.738 µM | 1.48 µM | 45.5% | 61.4% | 65.5% | – | – | –
COc1ccc(NC(=O)C2c3ccccc3C(=O)N(CC(C)C)C2c2cccs2)cc1Cl (stereo not drawn) | < 0% | 1040 nM | 0.204 µM | 0.156 µM | 0.183 µM | 75.7% | 74.9% | 78.9% | 28 | – | –
Cn1c(C(=O)c2cccc3ccccc23)nc2ccccc21 | 9.52 ± 8.7% | 147 nM | – | – | – | 53% | 65.5% | 70.2% | 24 | 2.4 min | –
Cc1cc(NC(=O)c2ccc(-c3ccccc3)cc2)no1 | < 0% | 1810 nM | – | – | – | 45.3% | 53.4% | 61.7% | 26 | 2.27 min | –
COc1ccccc1C(=O)ON=C(N)Cc1cccc2ccccc12 | 73.6 ± 2.5% | 244 nM | 1.25 µM | 3.9 µM | 3.93 µM | 12% | 43.7% | 78.8% | – | – | –

From the supplement of paper PMC5770543
